This is an account of results in patent US8314138B2, “Pyrazole derivative as SCD1 inhibitors for the treatment of diabetes” (Novartis AG, priority 2006, dated 2012).

Broadly, the IC50 is the concentration that gives 50% inhibition. High values mean a need for much substance, low ones inhibition by little substance.

This experiment concerns the target T1, stearoyl-CoA desaturase (SCD1) (Mus musculus, UniProt P13516).
T1 construct: Male ICR outbread mice, on a high-carbohydrate, low fat diet; from tissue; host or cells: liver microsomes of male ICR mice on a high-carbohydrate, low fat diet
T1 sequence (P13516 1-355): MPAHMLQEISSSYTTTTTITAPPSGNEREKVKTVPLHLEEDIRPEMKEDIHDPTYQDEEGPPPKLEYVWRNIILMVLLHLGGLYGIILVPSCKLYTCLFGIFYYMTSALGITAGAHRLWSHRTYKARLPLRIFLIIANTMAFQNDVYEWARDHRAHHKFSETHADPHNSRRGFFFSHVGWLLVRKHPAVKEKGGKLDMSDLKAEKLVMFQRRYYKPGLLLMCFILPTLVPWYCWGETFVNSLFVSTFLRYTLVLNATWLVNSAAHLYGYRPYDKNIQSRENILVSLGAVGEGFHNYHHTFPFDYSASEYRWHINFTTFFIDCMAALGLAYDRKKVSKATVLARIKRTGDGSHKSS
Briefly: SCD microsomal assay: release of 3H2O from [9,10-3H]stearoyl-CoA in mouse liver microsomes. It counts as biochemical. Particulars: 15 min incubation, 25° C. An excerpt: The identification of compounds of the invention as SCD inhibitors was readily accomplished using the SCD enzyme and microsomal assay procedure described in Shanklin J. and Summerville C., Proc. Natl. Acad. Sci. USA (1991), Vol. 88, pp. 2510-2514.
Measuring Stearoyl-CoA Desaturase Inhibition Activity of a Test Compound Using Mouse Liver Microsomes
The identification of compounds of the invention as SCD inhibitors was readily accomplished using the SCD microsomal assay procedure described in Shanklin J. and Summerville C., Proc. Natl. Acad. Sci. USA (1991), Vol. 88, pp. 2510-2514, which is incorporated herein by reference in its entirety.
Preparation of Mouse Liver Microsomes:
Male ICR outbread mice, on a high-carbohydrate, low fat diet, under light halothane (15% in mineral oil) anesthesia are sacrificed by exsanguination during periods of high enzyme activity. Livers are immediately rinsed with cold 0.9% NaCl solution, weighed and minced with scissors. All procedures are performed at 4° C. unless specified otherwise. Livers are homogenized in a solution (1/3 w/v) containing 0.25 M sucrose, 62 mM potassium phosphate buffer (pH 7.0), 0.15 M KCl, 15 mM N-acetylcysteine, 5 mM MgCl2, and 0.1 mM EDTA using 4 strokes of a Potter-Elvehjem tissue homogenizer. The homogenate is centrifuged at 10,400×g for 20 min to eliminate mitochondria and cellular debris. The supernatant is filtered through a 3-layer cheesecloth and centrifuged at 105,000×g for 60 min. The microsomal pellet is gently resuspended in the same homogenization solution with a small glass/teflon homogenizer and stored at −70° C. The absence of mitochondrial contamination is enzymatically assessed. The protein concentration is measured using bovine serum albumin as the standard.
Incubation of Mouse Liver Microsomes with Test Compounds:
Desaturase activity is measured as the release of ^3H2O from [9,10-^3H]stearoyl-CoA. Reactions per assay point conditions are as follows: 2 μL 1.5 mM stearoyl-CoA, 0.25 μL 1 mCi/mL ^3H stearoyl CoA, 10 μL 20 mM NADH, 36.75 μL 0.1 M PK buffer (K2HPO4/NaH2PO4, pH 7.2). The test compound or control solution is added in a 1 μL volume. Reactions are started by adding 50 μL of microsomes (1.25 mg/mL). The plates are mixed and after 15 min incubation on a heating block (25° C.), the reactions are stopped by the addition of 10 μL 60% PCA. An aliquot of 100 μL is then transferred to a filter plate pretreated with charcoal and the plate centrifuged at 4000 rpm for 1 minute. The flow through containing the ^3H2O released by the SCD1 desaturation reaction is added to scintillation fluid and the radioactivity measured in a Packard TopCount. The data is analyzed to identify the IC50 for test compounds and reference compounds. […] The activity was defined in terms of % SCD enzyme activity remaining at the desired concentration of the test compound or as the IC50 concentration. The IC50 (affinity) of the example compounds toward the stearoyl-CoA desaturase is comprised between around 20 μM and 0.0001 μM or between around 5 μM and 0.0001 μM or between around 1 μM and 0.0001 μM.

The compound `Cc1nc(-c2cncc(CCc3ccccc3)n2)sc1C(=O)NCc1ccccc1` [Example 4, 4-methyl-2-(6-phenethyl-pyrazin-2-yl)-thiazole-5-carboxylic acid benzylamide] yielded an IC50 of 42 nM.
`Cc1nc(-c2cncc(N(C)CCCc3ccccc3)n2)sc1C(=O)NCc1ccc(F)cc1` [Example 16, 4-methyl-2-{6-[methyl-(3-phenyl-propyl)-amino]-pyrazin-2-yl}-thiazole-5-carboxylic acid 4-fluoro-benzylamide] came in with an IC50 of 164 nM.
As to `COc1ccc(CN(C)c2cncc(-c3nc(C)c(C(=O)NCc4ccc(F)cc4)s3)n2)cc1` [Example 22, 2-{6-[(4-methoxy-benzyl)-methyl-amino]-pyrazin-2-yl}-4-methyl-thiazole-5-carboxylic acid 4-fluoro-benzylamide], the IC50 amounted to 98 nM.
Compound `Cc1nc(-c2cncc(N(C)Cc3ccc(F)cc3)n2)sc1C(=O)NCc1ccccc1` [Example 29, 2-{6-[(4-fluoro-benzyl)-methyl-amino]-pyrazin-2-yl}-4-methyl-thiazole-5-carboxylic acid benzylamide] gave an IC50 of 124 nM.
`Cc1nc(-c2ccn(CCCc3ccccc3)n2)sc1C(=O)NCc1ccccc1` [Example 37, 4-methyl-2-[1-(3-phenyl-propyl)-1H-pyrazol-3-yl]-thiazole-5-carboxylic acid benzylamide] gave an IC50 of 71 nM.
Next, `Cc1nc(-c2ccn(Cc3ccc(C#N)cc3)n2)sc1C(=O)NCc1cccnc1` [Example 52, 2-[1-(4-cyano-benzyl)-1H-pyrazol-3-yl]-4-methyl-thiazole-5-carboxylic acid (pyridin-3-ylmethyl)amide]: 74 nM; `Cc1nc(-c2ccn(Cc3ccc(S(C)(=O)=O)cc3)n2)sc1C(=O)NCc1cccnc1` [Example 66, 2-[1-(4-methanesulfonyl-benzyl)-1H-pyrazol-3-yl]-4-methyl-thiazole-5-carboxylic acid (pyridin-3-ylmethyl)amide]: 172 nM; `Cc1nc(-c2ccn(CCN(C)c3ccccc3)n2)sc1C(=O)NCc1cccnc1` [Example 79, 4-methyl-2-{1-[2-(methyl-phenylamino)-ethyl]-1H-pyrazol-3-yl}-thiazole-5-carboxylic acid (pyridin-3-ylmethyl)amide]: 49 nM.
The value for `Cc1nc(-c2ccn(CCC3CC3)n2)sc1C(=O)NCc1ccc(F)cc1` [Example 85, 2-[1-(2-cyclopropyl-ethyl)-1H-pyrazol-3-yl]-4-methyl-thiazole-5-carboxylic acid 4-fluoro-benzylamide] was 147 nM.
Compound `COc1ccc(CCn2ccc(-c3nc(C)c(C(=O)NCc4ccc(F)cc4)s3)n2)cc1` [Example 87, 2-{1-[2-(4-Methoxy-phenyl)-ethyl]-1H-pyrazol-3-yl}-4-methyl-thiazole-5-carboxylic acid 4-fluoro-benzylamide] gave an IC50 of 96 nM.
